In PMC8179358, “An explicitly designed paratope of amyloid-β prevents neuronal apoptosis in vitro and hippocampal damage in rat brain” (Chemical Science, 2020):

How the values were obtained:
Type in all cases: cell-based, human
[1] = test system: SH-SY5Y cells; assay: Hoechst 33258 staining of apoptotic cells; settings: Aβ40 10 μM, 24 h
Text: (§1) Condensed or fragmented nuclear bodies characterize the distinctive nature of apoptotic cells. […] Dyshomeostasis of Ca^2+ is also responsible for the increased production of Aβ peptides, by which a degenerative feed-forward cycle is activated, resulting in accelerated apoptosis, synaptic dysfunction, and memory impairment.[49]

[2] = test system: SH-SY5Y cells; assay: Intracellular ROS (DCFH-DA); settings: Aβ40 10 μM, 24 h
Text: as §1
The release of cytosolic enzyme lactate dehydrogenase (LDH) into the culture medium indicates cell death due to the disruption of membrane integrity. Cell deathwas assessed by measuring LDH release in the culture medium by photocolorimetric kit according to the manufacturer’s protocol (Abcam, Cambridge, MA, USA). […]
Next, 50 µl culture supernatant was collected from each well and added to an assay mixture that was prepared by adding an equal amount of LDH substrate, co-factors, and dye solutions and incubated in the dark for 40mins at 37°C. […] Absorbance was measured at 490 nm with a reference filter of 660nm. […]
Generation of intracellular reactive oxygen species was measured by a spectrofluorimetric method using peroxide sensitive fluorescent probe 2′,7′-Dichlorofluorescin diacetate (DCFH-DA).11 In brief, SH-SY5Y […]
or both for 24h. […] Cells were then washed twice with PBS, and fluorescent intensity was measured by using a fluorescence microplate reader (Bio Rad, CA, USA) with an excitation filter of 490 nm and an emission filter of 520 nm.

[3] = test system: cleaved caspase-3; assay: Western blot, cleaved caspase-3
Experimental: e. Measurement of intracellular calcium (Ca 2+)
Ca2+sensitive dye Fura-2AM was used to measure free intracellular Ca2+level in SH-SY5Y cell suspension by the previously described method.12 Following treatment with the respective drug, Fura-2 AM (Cayman, USA) at a concentration of 5 µM was added to the culture medium and incubated at 37°C for 45 min. Next, Krebs-Ringer-HEPES (KRH) buffer (135mM NaCl, 5mM KCl, 1mM MgSO4, 0.4mM KH2PO4, 1mM CaCl2, 5.5mM glucose, 20mM HEPES, pH 7.4) was used to wash each plate twice containing (1×10^6cells). Fluorescent microplate reader (FLX 800, Biotek, USA) was used to measure the fluorescence intensity with an excitation and emission spectra of […], respectively. Results are Mean±SEM of quadruplicate measurements from three separate experiments and expressed in the increase in percent relative fluorescent unit (RFU) relative to the baseline reading.
Western blot analysis was performed to measure Bax, Bcl-2, cleaved Caspase 9 and cleaved Caspase 3, pro and anti-apoptotic proteins expression. About 5× 10^6 cells were washed with PBS twice following […]
overnight. […] The optical density (OD) value of each band was analyzed by the electrophoresis image analysis system (Smartview 2001, S/N: SV-0002202, Japan) and normalized against the corresponding β-actin band. […]

Substance: Aβ40: commercially available Aβ40 peptide
- apoptotic cells, Aβ40 alone [1]: A significant number of apoptotic cells were observed
- ROS marker intensity, Aβ40 alone [2]: increased in the presence of Aβ40 compared to untreated cells
- caspase-3 activation by Aβ40 alone [3]: leads to activation of caspase-3 directed DNA breakage, nuclear chromatin condensation, and neurocellular apoptosis
